The target in one assay is T1, antigen 85C (Ag85C) (Mycobacterium tuberculosis, UniProt P9WQN9).
T1 construct: gene fbpC
Briefly: […]-HSQC NMR titration (chemical shift perturbation). The class given is binding.

For assay [1], the system named is T2, Mycobacterium smegmatis Msmeg.
T2 construct: DSM 43465
The assay can be described thus: microbe, parasite or virus in culture. The arrangement: species or system Mycobacterium smegmatis DSM 43465; broth microdilution MIC in CAMHB, MTT staining, visual read-out. The note with it: Mycolicibacterium smegmatis; read-out: Msmeg growth inhibition [MIC ug/mL]. As to the method: The BEI parameter is conceptually very similar to previously published ligand efficiency (LE) parameters that normalize logarithmic affinity by non-hydrogen atom count rather than molecular weight ^5-7. Experimental Section Antibacterial in vitro assay for M. smegmatis. For MIC assays according to the Clinical and Laboratory Standards Institute M. smegmatis (strain DSM 43465) cells were grown in CAMHB medium at 35°C to an OD625nm higher than 0.09 followed by a dilution in medium to reach OD625nm of […] (“0.5 McFarland Standard”). These cell suspensions were brought to approximately 1 * 10^6 CFU/ml which corresponds to a 1:200 dilution. Resulting cell inoculi were diluted 1:1 with medium containing increasing concentrations of test compound as indicated in 96 well plates in duplicates (cell titer and purity of inoculum was checked in parallel by plating out on CAMHB-agar). After 24 – 48 h incubation MTT-solution (5 mg/ml thiaolyl blue tetrazoliumbromide) were added to stain wells with living cells and plates were photographed ^8. Wells with the lowest concentration of compound that were free of the dark brown color of bacteria were considered MICs. Ampicillin was used as a positive control antibiotic. Learning from the rich literature of potent in vitro enzyme inhibitors that were discarded due to the lack of antibacterial activity, we assayed the 31 selected FRIGATE hits for antibacterial activity prior to in vitro follow-up work. We utilized the less pathogenic and faster growing Mtb model organism Msmeg for primary growth inhibition testing.

The structures appear in SMILES notation. ≈ marks a conversion by molar mass, not a printed value.

T1 sequence (P9WQN9 46-340): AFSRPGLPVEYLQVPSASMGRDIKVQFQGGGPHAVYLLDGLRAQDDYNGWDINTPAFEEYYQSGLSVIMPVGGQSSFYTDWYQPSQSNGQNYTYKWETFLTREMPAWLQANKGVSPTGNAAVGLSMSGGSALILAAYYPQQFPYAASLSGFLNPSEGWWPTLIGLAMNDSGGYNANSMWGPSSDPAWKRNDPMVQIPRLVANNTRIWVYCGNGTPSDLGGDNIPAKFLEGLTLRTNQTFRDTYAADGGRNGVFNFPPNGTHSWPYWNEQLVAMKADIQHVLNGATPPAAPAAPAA

As to `Cc1cccn2c(=O)c3cc(C(=O)NCCCn4ccnc4)n(Cc4ccccc4)c3nc12` [compound 1, N-[3-(1H-imidazol-1-yl)propyl]-1-benzyl-9-methyl-4-oxo-1,4-dihydropyrido[1,2-a]pyrrolo[2,3-d]pyrimidine-2-carboxamide], the Kd on antigen 85C (Ag85C) came to 177 µM. Also, the MIC in assay [1] was below 50 µg/mL. In the case of `CC1=C(C#N)c2nc(N)c(C#N)cc2C1=Cc1ccc(-c2ccccc2C(=O)O)o1` [compound 2, 2], the MIC in assay [1] is above 200 µg/mL. `OC(CNC1CCc2ccccc21)COc1ccc(-c2csnn2)cc1` (stereo not shown) [compound 3, 3]: in assay [1], the MIC came out at 100 µg/mL (≈ 272 µM).

For orientation: Kd means the concentration at which binding is half-saturated.
